Data reported in US20240051938A1, “SELECTIVE BRD4-DEGRADER MOLECULES” (Regents of the University of Minnesota, priority 2022, published 2024).
Read-outs that look alike come from different tables or passages of the source. Peptide text beside a SMILES is read from it. * marks the point of attachment. Cbz = O=C(OCc1ccccc1)*

How the values were obtained:
[1] = target: T1, BRD4 (Homo sapiens, UniProt O60885); assay: Rescue of dBRD4-BD1-induced BRD4 degradation in MM.1S cells (competition experiments); type: cell-based; parameters: endogenous in cells; settings: competition with dBRD4-BD1
Method: Western Blotting: MM.1S cells were seeded in 12-well plates at a density of 4×10^6 cells per well and treated with compounds for indicated times. Cells were transferred to 2 mL microcentrifuge tubes and harvested by low-speed centrifugation at 500×g. for 5 minutes. The well was rinsed, and the cell pellet washed twice with ice-cold PBS with centrifuging. The supernatant was carefully decanted, and the cell pellet was resuspended for lysis in 100 μL of RIPA buffer (ThermoFisher Scientific) supplemented with 1× cOmplete Mini Protease (Roche) and stored on ice for 10 minutes. After high-speed centrifugation (10 min at 10,000 X g.), protein concentrations were determined by the BCA assay (ThermoFisher Scientific) and normalized by total protein content. Normalized samples were mixed with 4× NuPAGE LDS loading buffer (Invitrogen) and 10× reducing agent (Invitrogen), and heated at 95° C. for 10 minutes before separation on 3-8% Tris-Acetate gels. Proteins were transferred to PVDF membranes for 12 minutes on a BioRad Trans-Blot Turbo. Membranes were dried, blocked in TBS-T containing 5% nonfat dry milk, and subsequently incubated with TBS-T containing 5% nonfat dry milk for 4 hours at room temperature, or 16 hours at 4° C., with primary antibodies at dilutions listed below. After the membranes were washed five times with TBS-T, they were incubated with secondary antibodies for 2 hours. at room temperature. Membranes were washed five times in TBS-T and treated with SuperSignal West Dura substrates (Thermo) for 1 minute and imaged using a LiCor Odyssey Fc.

[2] = target: T1, BRD4; assay: Competition of MZ1-induced BRD4 degradation with pan-BD1 or pan-BD2 inhibitors; type: cell-based; parameters: endogenous in cells; host or cells: HEK293T; settings: competition with pan-BET degrader MZ1
[3] = target: T1, BRD4; settings: BRD4 degradation, 6 hours, N = 1; for DC50: read-out: HEK293 (DC50)
Method: (§3) HEK293T cells were grown in a humidified 5% CO2 environment at 37° C. Cells were cultured in DMEM media (Corning) supplemented with 10% fetal-bovine serum (FBS, Cellgro), penicillin (50 IU/mL, Cellgro) and streptomycin (50 μg/mL, Cellgro). Once the adherent cells reached 85% confluency, the media was removed, and cells were treated with 0.25% trypsin/EDTA for 2 min. The trypsin was then neutralized, and the cells were pelleted by centrifugation (4000 g, 5 min) before resuspending in new media and subcultured at a 1:20 ratio.
(§4) HEK293T cells were seeded at 500,000 cells/well in a TC-treated 6-well plate and incubated in a 5% CO2 environment at 37° C. for 18 hours. […] Cells were dosed with compound for incubated times. Media was then removed and the cells were washed gently with cold PBS. To the plate was added 100 μL of RIPA buffer supplemented with 1X Roche cOmplete Mini protease inhibitor cocktail. Using a cell scraper, the cells were removed from the plate into the buffer. The cell lysate was then centrifuged at 14,000 rpm at 4° C. for 5 minutes before lysates were normalized by total soluble protein concentration using BCA protein assay kit (Peirce). Normalized samples were mixed with 4× NuPAGE LDS loading buffer (Invitrogen) and 10× reducing agent (Invitrogen), and heated at 95° C. for 10 minutes before separation on 3-8% Tris-Acetate gels. Proteins were transferred to PVDF membranes for 12 minutes on a BioRad Trans-Blot Turbo. Membranes were dried, cut, blocked in TBS-T containing 5% nonfat dry milk, and subsequently incubated with TB S-T containing 5% nonfat dry milk for 16 hours at 4° C. with an additional 2 hours at ambient temperature, with primary antibodies at dilutions listed below. After the membranes were washed five times with TBS-T, they were incubated with secondary antibodies for 2 h. at room temperature. Membranes were washed five times in TBS-T and treated with SuperSignal West Dura substrates (Thermo) for 1 minute and imaged using a LiCor Odyssey Fc. Membranes were then stained for total protein levels with SimplyBlue SafeStain (Invitrogen, Ref 465034) to confirm transfer and loading homogeneity.
(§5) The DCmax and DC50 values were determined via densitometry analysis from western blot data. Curve fitting analysis was conducted via non-linear regression using Graphpad PRISM.

[4] = target: T1, BRD4; assay: cell-based; settings: HEK293, read-out: HEK293 (Dmax)
Method: as §3, §4, §5

[5] = target: T2, BRD2 (Homo sapiens, UniProt P25440); settings: cited from earlier work
T2 sequence (P25440 whole entry): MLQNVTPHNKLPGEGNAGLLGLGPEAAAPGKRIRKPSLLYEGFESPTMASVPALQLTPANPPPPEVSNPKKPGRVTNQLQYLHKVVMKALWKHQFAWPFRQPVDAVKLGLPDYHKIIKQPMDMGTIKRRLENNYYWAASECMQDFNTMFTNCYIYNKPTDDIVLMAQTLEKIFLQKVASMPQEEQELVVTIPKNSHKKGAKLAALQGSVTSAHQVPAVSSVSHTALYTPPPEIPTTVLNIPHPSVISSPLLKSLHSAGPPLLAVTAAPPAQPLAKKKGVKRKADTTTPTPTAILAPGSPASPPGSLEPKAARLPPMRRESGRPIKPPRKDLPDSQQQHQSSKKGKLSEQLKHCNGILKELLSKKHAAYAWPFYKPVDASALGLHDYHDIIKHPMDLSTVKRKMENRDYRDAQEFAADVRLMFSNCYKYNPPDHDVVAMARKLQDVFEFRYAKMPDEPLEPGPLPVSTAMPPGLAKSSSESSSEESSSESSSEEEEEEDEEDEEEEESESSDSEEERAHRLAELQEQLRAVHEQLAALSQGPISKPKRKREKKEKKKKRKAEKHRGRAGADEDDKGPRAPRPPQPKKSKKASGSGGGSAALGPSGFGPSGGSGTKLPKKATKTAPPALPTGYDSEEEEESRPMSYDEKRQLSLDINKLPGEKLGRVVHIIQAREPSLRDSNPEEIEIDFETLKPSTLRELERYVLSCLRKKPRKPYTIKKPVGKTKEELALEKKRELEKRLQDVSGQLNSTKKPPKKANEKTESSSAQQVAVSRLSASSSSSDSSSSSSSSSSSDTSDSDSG

[6] = target: T3, BRD3 (Homo sapiens, UniProt Q15059); settings: cited from earlier work
T3 sequence (Q15059 whole entry): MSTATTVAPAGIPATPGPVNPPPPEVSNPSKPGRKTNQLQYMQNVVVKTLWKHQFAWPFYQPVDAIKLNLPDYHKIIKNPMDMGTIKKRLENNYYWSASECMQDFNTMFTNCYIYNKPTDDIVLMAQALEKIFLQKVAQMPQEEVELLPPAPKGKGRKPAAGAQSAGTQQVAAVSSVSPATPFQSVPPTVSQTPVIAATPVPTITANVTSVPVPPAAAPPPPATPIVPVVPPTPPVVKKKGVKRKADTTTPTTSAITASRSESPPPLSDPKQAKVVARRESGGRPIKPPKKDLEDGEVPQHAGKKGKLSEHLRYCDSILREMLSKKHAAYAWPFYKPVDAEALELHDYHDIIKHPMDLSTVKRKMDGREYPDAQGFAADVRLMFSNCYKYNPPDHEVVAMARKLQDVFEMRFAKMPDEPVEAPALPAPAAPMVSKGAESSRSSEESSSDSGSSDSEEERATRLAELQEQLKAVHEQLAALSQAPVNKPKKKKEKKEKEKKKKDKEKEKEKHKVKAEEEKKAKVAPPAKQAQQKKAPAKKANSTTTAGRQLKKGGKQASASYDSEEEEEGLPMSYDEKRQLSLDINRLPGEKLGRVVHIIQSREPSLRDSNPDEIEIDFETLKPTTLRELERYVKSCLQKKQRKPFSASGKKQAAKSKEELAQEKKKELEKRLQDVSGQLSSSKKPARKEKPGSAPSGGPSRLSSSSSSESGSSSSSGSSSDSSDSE

[7] = target: T4, 9xHis-BRD4-BD1 (Homo sapiens, UniProt O60885); assay: AlphaScreen binding assay with His9-tagged BRD4-BD1 (1% DMSO); settings: 1% v/v DMSO; mean of three independent trials in duplicate; read-out: BRD4-BD1 IC50 (apparent binding)
T4 construct: 30 nM for His9-tagged BRD4-BD1 bromodomain and 50 nM for the biotinylated peptide were used; made in house
Method: (B) Alphascreen binding assay with 9xHis-BRD4-BD1, reported as mean±SD of three independent trials performed in duplicate.
The AlphaScreen assay procedure for BRD4-BD1 bromodomain was adapted from the manufacturers protocol (PerkinElmer, USA). […] The biotinylated histone H4 KAc5,8,12,16 peptide was purchased from EpiCypher, with the sequence: Ac-SGRGK(Ac)GGK(Ac)GLGK(Ac)G-GAK(Ac)RHRKVLR-Peg(Biot). All reagents were diluted in the assay buffer (50 mM HEPES-Na+(ChemImpex), 100 mM NaCl (SigmaAldrich), 0.05% CHAPS (RPI), 0.1% BSA (SigmaAldrich), pH 7.4). The final assay concentrations (after the addition of all assay components) of 30 nM for His9-tagged BRD4-BD1 bromodomain and 50 nM for the biotinylated peptide were used. 3-fold serial dilutions were prepared with varying concentrations of the compounds and a fixed protein concentration, keeping the final DMSO concentration at 1% v/v. […] This was followed by the addition of 5 μL of the biotinylated peptide. 5 μL of nickel chelate acceptor beads and 5 μL of streptavidin donor beads were added to each well under low light conditions (<100 lux), to a final concentration of 20 μg/mL. The plate was sealed and incubated at room temperature in the dark for 1 hour. It was then read in AlphaScreen mode using a Tecan Spark plate reader. Each compound was run in two technical replicates, with at least three biological replicates.

[8] = target: T2, BRD2; assay: Western blot BRD2 levels in MM.1S cells; type: cell-based
Method: (§1) FIG. 4A-4D: Degradation of BRD4 in MM.1S cells. (A) Representative blots for degradation of BRD4 after 24-hour treatment. (B) Quantified densitometry for three biological replicates of blots from (A). (C) Time-course study of BRD4 degradation by dBRD4-BD1. (D) Rescue of BRD4 degradation using pan-BD1, proteasome and neddylation inhibitors, but not pan-BD2 inhibitor, iBET-BD2.
(§2) Western Blotting: MM.1S cells were seeded in 12-well plates at a density of 4×10^6 cells per well and treated with compounds for indicated times. Cells were transferred to 2 mL microcentrifuge tubes and harvested by low-speed centrifugation at 500×g. for 5 minutes. The well was rinsed, and the cell pellet washed twice with ice-cold PBS with centrifuging. The supernatant was carefully decanted, and the cell pellet was resuspended for lysis in 100 μL of RIPA buffer (ThermoFisher Scientific) supplemented with 1× cOmplete Mini Protease (Roche) and stored on ice for 10 minutes. After high-speed centrifugation (10 min at 10,000 X g.), protein concentrations were determined by the BCA assay (ThermoFisher Scientific) and normalized by total protein content.

[9] = target: T3, BRD3; assay: Western blot BRD3 levels in MM.1S cells; type: cell-based
Method: as §1, §2

[10] = target: T5, p38a kinase (Homo sapiens, UniProt Q16539); assay: Western blot p38a levels in MM.1S cells; type: cell-based; settings: 24-hour time-point or time-course study at 5 μM
T5 construct: endogenous in cells; host or cells: MM.1S
T5 sequence (Q16539 whole entry): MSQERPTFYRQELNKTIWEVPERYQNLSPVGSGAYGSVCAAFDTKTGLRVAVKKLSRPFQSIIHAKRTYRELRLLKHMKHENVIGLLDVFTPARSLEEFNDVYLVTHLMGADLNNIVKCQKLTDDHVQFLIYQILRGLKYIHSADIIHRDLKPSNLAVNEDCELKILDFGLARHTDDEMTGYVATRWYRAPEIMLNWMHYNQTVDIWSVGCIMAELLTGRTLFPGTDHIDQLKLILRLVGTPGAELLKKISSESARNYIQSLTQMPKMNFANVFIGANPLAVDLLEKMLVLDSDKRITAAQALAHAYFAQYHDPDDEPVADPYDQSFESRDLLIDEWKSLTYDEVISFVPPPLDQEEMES
Method: as §1, §2

[11] = test system: cMyc; assay: Western blot cMyc expression in MM.1S cells; type: cell-based; settings: compared with previously reported BRD4 degraders
Method: as §2

[12] = target: BRD4 (Homo sapiens, UniProt O60885+Q96SW2); assay: TR-FRET ternary-complex formation; type: biochemical
Chain of BRD4 (Homo sapiens, UniProt O60885+Q96SW2) (Q96SW2 whole entry, one chain of several): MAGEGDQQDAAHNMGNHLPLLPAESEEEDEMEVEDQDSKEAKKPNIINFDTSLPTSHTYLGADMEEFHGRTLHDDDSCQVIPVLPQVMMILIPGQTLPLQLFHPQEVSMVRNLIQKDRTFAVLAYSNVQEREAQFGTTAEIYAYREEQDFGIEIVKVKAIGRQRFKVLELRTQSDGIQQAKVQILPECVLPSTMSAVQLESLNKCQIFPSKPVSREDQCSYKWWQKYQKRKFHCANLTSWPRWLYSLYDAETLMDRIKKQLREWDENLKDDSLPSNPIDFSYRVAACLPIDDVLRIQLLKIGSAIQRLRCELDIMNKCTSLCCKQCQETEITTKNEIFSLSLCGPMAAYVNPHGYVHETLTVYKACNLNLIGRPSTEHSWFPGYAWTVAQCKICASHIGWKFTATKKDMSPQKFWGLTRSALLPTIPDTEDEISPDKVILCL

[13] = test system: MM.1S cells; assay: 72 hour Alamar blue cytotoxicity assay of MM.1S cells; type: cell-based
Method: FIG. 5: 72 hour Alamar blue cytotoxicity assay of MM.1S cells with compounds. Data reported as mean±SD of three independent trials of three replicates each.
Viability Assays: MM. 1 S cells were seeded in 96-well plates at approximately 20 000 cells per well (0.05 mL) and dosed with increasing compound concentrations in the presence of DMSO with three technical replicates per concentration. After incubation for 69 hours at 37° C., 10 μL of the Alamar Blue reagent (Invitrogen) was added to each well and the plates were incubated for 3 hours at 37° C. Fluorescence was determined using a Synergy plate reader (BioTek, Ex.: 560 nm, Em.: 590 nm) and dose-response data were normalized to untreated and blank wells containing 0.05% DMSO in cell culture media. Data analysis was performed using GraphPad Prism.

[14] = target: T1, BRD4; assay: Western blot BRD4 degradation in MM.1S cells; type: cell-based; parameters: endogenous in cells
Excerpt: as §1
The mixed suspension/adherent cells were subcultured at a 1:10 dilution by decanting suspended cells and dissociating adherent cells from plates in 0.25% trypsin/EDTA (Gibco) with 2 min incubation times. Cell-line authenticity was verified using the short-tandem-repeat (STR)-profiling service provided by ATCC.
as §2

[15] = target: T1, BRD4; assay: Western blot BRD4 degradation in MV411 cells; type: cell-based; parameters: endogenous in cells; settings: 6 hours, N = 1
[16] = Solubility observed in AlphaScreen assay; settings: required increased DMSO (1% v/v) in assay

CC(=O)Nc1c(F)cc(C(=O)N[C@H]2CC[C@H](O)CC2)cc1O[C@@H](C)c1ccccc1 [iBET-BD2]
rescue of BRD4 degradation by dBRD4-BD1 [1]: no effect | prevention of MZ1-induced BRD4 degradation by competitor [2]: neither BD1 nor BD2 inhibition was able to prevent BRD4 degradation

Cc1ccc(C(C)C)cc1Oc1nccc(-c2c(-c3ccc(C(F)(F)F)cc3)ncn2C2CCN(CCOCCOCCNC(=O)CN(C)c3cccc4c3C(=O)N(C3CCC(=O)NC3=O)C4=O)CC2)n1 (centres unmarked) [Example 4]
DC50 [3]: 105 nM | Dmax [4]: 84%

Cc1ccc(C(C)C)cc1Oc1nccc(-c2c(-c3ccc(C(F)(F)F)cc3)ncn2C2CCN(CCOCCOCCNC(=O)CNc3cccc4c3C(=O)N(C3CCC(=O)NC3=O)C4=O)CC2)n1 (centres unmarked) [Example 5]
DC50 [3]: 290 nM | Dmax [4]: 60%

COC(=O)C[C@@H]1N=C(c2ccc(Cl)cc2)c2c(sc(C(=O)NCCCCCNc3cccc4c3C(=O)N(C3CCC(=O)NC3=O)C4=O)c2C)-n2c(C)nnc21 (some centres unmarked) [ZXH-3-26]
concentration of BRD2 upon BRD4 degradation [5]: remain unchanged | concentration of BRD3 upon BRD4 degradation [6]: remain unchanged

Cc1ccc(C(C)C)cc1Oc1nccc(-c2c(-c3ccc(C(F)(F)F)cc3)ncn2C2CCN(CCNC(=O)COc3cccc4c3C(=O)N(C3CCC(=O)NC3=O)C4=O)CC2)n1 (centres unmarked) [Example 6]
DC50 [3]: 810 nM | Dmax [4]: 95%

CC(=O)N[C@H](C(=O)N1C[C@H](O)C[C@H]1C(=O)NCc1ccc(-c2scnc2C)cc1)C(C)(C)SCCCCCCNC(=O)C[C@@H]1N=C(c2ccc(Cl)cc2)c2c(sc(C)c2C)-n2c(C)nnc21 [AT1]
concentration of BRD2 upon BRD4 degradation [5]: remain unchanged | concentration of BRD3 upon BRD4 degradation [6]: remain unchanged

Cc1ccc(C(C)C)cc1Oc1nccc(-c2c(-c3ccc(C(F)(F)F)cc3)ncn2C2CCN(CCOCCOCCNC(=O)COc3cccc4c3C(=O)N(C3CCC(=O)NC3=O)C4=O)CC2)n1 (centres unmarked) [dBRD4-BD1]
IC50 [7]: 1360 nM | BRD2 level at concentrations where BRD4 was degraded [8]: upregulated | degradation of BRD2 ([8]; 24-hour treatment): not observed | BRD3 level at concentrations where BRD4 was degraded [9]: upregulated | degradation of BRD3 ([9]; 24-hour treatment): not observed | degradation of p38a [10]: not observed | effect on cMyc expression [11]: weaker effect on cMyc expression | ternary-complex formation by TR-FRET [12]: moderate ternary-complex formation | cytotoxicity [13]: lower observed cytotoxicity | HEK293 (Dmax) [3]: 100% | DC50 [3]: 500 nM | BRD4 degradation Dmax ([14]; 24-hour treatment): 23% | DC50 ([14]; 24-hour treatment): 280 nM | concentration above which BRD4 degradation diminished (hook effect) ([14]; 24-hour treatment): > 5 µM | time to maximal BRD4 degradation ([14]; time-course study at 5 μM): 8 h | DC50 [15]: 14 nM | MV411 (Dmax) [15]: 85% | solubility [16]: poor solubility

NS(=O)(=O)OC[C@@H]1C[C@@H](n2ccc3c(N[C@H]4CCc5ccccc54)ncnc32)C[C@@H]1O [MLN4924]
rescue of BRD4 degradation by dBRD4-BD1 [1]: rescue of BRD4 degradation was observed

CC(C)C[C@@H](C=O)NC(=O)[C@H](CC(C)C)NC(=O)[C@H](CC(C)C)NC(=O)OCc1ccccc1 [MG-132] (Cbz-Leu-Leu-Leu-aldehyde)
rescue of BRD4 degradation by dBRD4-BD1 [1]: rescue of BRD4 degradation was observed
